These results are taken from US20170008888A1 (KYORIN PHARMACEUTICAL CO., LTD., priority 2014, published 2017).

One experiment deals with T1, ACK (Homo sapiens, UniProt Q07912).
T1 construct: screened for activity against several kinases in Jurkat cells; endogenous in cells; host or cells: Jurkat cell lysate
Kind of experiment: Probe-based (AX9989) kinase profiling in Jurkat lysate: ACK. The format is binding. As to conditions: read-out: Kinase inhibition % at indicated screening concentration: ACK; for inhibition at 1 µM: screening concentration 1.0 μM. Summed up: (§1)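 Percent inhibition was derived from reduced LC/MS fragment intensities of probe-labeled peptides relative to compound-free controls. Before labeling with 5 μM AX9989, Mn2+-supplemented (20 mM) Jurkat lysate was exposed to compound for 15 min at room temperature.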

In another experiment the target is T2, JAK1 (Homo sapiens, UniProt P23458).
T2 construct: screened for activity against several kinases in Jurkat cells; endogenous in cells; host or cells: Jurkat cell lysate
T2 sequence (P23458 whole entry): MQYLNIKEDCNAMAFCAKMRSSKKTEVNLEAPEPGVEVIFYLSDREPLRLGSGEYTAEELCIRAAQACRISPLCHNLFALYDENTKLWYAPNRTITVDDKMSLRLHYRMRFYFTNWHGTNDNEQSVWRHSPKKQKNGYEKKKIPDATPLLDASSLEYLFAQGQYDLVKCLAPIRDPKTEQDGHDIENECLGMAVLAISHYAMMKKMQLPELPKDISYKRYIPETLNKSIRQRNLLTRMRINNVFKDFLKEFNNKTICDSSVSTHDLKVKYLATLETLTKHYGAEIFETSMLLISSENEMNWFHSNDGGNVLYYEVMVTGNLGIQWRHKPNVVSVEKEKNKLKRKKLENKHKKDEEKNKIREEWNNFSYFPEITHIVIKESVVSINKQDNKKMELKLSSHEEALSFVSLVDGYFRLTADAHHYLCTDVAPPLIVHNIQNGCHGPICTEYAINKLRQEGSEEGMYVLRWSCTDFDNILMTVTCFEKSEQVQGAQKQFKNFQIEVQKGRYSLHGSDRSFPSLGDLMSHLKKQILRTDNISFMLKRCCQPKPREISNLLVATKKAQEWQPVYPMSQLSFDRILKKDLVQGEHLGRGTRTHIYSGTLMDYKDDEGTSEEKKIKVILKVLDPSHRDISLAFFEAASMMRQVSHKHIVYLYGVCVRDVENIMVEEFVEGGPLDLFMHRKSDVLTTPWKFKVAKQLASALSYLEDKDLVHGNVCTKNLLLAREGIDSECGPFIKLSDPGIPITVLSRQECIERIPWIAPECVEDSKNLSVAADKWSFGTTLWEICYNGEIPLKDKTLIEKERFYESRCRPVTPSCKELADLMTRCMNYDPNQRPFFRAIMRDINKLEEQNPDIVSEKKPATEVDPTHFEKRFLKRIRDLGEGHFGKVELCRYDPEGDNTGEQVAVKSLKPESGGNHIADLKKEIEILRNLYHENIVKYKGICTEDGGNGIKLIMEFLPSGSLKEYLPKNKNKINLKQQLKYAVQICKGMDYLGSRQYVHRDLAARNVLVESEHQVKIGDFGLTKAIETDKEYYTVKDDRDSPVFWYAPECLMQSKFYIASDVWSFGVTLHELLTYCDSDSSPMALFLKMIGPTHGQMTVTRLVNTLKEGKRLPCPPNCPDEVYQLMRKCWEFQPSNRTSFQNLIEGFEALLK
Kind of experiment: Probe-based (AX9989) kinase profiling in Jurkat lysate: JAK1. The experiment is classed as binding. Conditions: read-out: Kinase inhibition % at indicated screening concentration: JAK1; for inhibition at 1 µM: screening concentration 1.0 μM. Summed up:
as §1

The subject of the next experiment is AurB or AurC. Kind of experiment: Probe-based (AX9989) kinase profiling in Jurkat lysate: AurB or AurC. The format is binding. The method, boiled down:
as §1

Another experiment has as its system human PBMCs. Nature of the experiment: Human PBMC TNF-α response to endotoxin (ELISA). The format is cell-based. Conditions: 0.1 μg/ml LPS 16 h, read-out: EC50 for the inhibition of the human PBMC TNF-α response to endotoxin, ave. ± S.D. Summed up: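 PBMCs at 2e6 cells/ml in RPMI 1640 with 10% charcoal-dextran-treated FBS were pre-treated 1 h at 37 °C with compound (4-point 1:5 dilution from 10 μM). Stimulation with 0.1 μg/ml E. coli 0111:B4 LPS for 16 h; TNF-α measured by ELISA (A450) in 25-fold diluted supernatant.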

Another experiment concerns the target T3, ERK5 (Homo sapiens, UniProt Q13164).
T3 construct: screened for activity against several kinases in Jurkat cells; endogenous in cells; host or cells: Jurkat cell lysate
Kind of experiment: Probe-based (AX9989 acyl phosphate ATP probe) kinase profiling in Jurkat lysate: ERK5. The format is binding. Conditions: for IC50: calculated from percent inhibition of AX9989 labeling and the screening concentration, Jurkat lysate; for inhibition at 1 µM: screening concentration 1.0 μM. The method, boiled down:
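ERK5 IC50 values came from percent inhibition at the screening concentration, measured as loss of LC/MS signal of probe-labelled active-site peptides. Compound was added for 15 min at room temperature to Jurkat lysate (5 mg/ml, 20 mM MnCl2) before labelling with AX9989 ATP acyl phosphate probe at 5 μM.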

For a further experiment, the system named is ABL or ARG. Kind of experiment: Probe-based (AX9989) kinase profiling in Jurkat lysate: ABL or ARG. The experiment is classed as binding. Summed up:
as §1

For another experiment, the system named is AMPKa1 or AMPKa2. Kind of experiment: Probe-based (AX9989) kinase profiling in Jurkat lysate: AMPKa1 or AMPKa2. The format is binding. Summed up: as §1
The target of the next experiment is T4, AurA (Homo sapiens, UniProt O14965).
T4 construct: screened for activity against several kinases in Jurkat cells; endogenous in cells; host or cells: Jurkat cell lysate
T4 sequence (O14965 1-403): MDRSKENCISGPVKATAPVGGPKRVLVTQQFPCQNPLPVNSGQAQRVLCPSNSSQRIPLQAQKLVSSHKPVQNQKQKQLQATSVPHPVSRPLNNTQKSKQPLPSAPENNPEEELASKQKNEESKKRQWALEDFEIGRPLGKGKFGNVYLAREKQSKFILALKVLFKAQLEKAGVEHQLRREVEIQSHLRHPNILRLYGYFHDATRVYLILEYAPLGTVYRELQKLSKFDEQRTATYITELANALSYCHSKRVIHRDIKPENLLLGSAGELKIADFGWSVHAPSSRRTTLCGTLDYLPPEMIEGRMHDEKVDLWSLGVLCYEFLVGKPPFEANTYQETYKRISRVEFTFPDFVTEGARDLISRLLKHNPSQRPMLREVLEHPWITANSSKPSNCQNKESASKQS
Nature of the experiment: Probe-based (AX9989) kinase profiling in Jurkat lysate: AurA. The format is binding. Conditions: read-out: Kinase inhibition % at indicated screening concentration: AurA; for inhibition at 1 µM: screening concentration 1.0 μM. The method, boiled down: as §1

The target of experiment [1] is T5, BRD4 bromodomain domain I [BRD4(1)] (Homo sapiens, UniProt O60885).
T5 construct: BRD4 bromodomain domain I [BRD4(1)]; purchased Cayman Chemicals
Nature of the experiment: BRD4 bromodomain domain 1 inhibition assay (TR-FRET). The experiment is classed as binding. As to conditions: screening concentration 10 μM. The method, boiled down:
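0.5% DMSO, in triplicate, using Cayman BRD4(1) TR-FRET protocol with slight modification. 670/620 nm ratio normalized to 10 μM JQ1, with DMSO control set as 0% inhibition.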

[2] abbreviates: read-out: Kinase inhibition % at indicated screening concentration: ERK5.

T3 sequence (Q13164 whole entry): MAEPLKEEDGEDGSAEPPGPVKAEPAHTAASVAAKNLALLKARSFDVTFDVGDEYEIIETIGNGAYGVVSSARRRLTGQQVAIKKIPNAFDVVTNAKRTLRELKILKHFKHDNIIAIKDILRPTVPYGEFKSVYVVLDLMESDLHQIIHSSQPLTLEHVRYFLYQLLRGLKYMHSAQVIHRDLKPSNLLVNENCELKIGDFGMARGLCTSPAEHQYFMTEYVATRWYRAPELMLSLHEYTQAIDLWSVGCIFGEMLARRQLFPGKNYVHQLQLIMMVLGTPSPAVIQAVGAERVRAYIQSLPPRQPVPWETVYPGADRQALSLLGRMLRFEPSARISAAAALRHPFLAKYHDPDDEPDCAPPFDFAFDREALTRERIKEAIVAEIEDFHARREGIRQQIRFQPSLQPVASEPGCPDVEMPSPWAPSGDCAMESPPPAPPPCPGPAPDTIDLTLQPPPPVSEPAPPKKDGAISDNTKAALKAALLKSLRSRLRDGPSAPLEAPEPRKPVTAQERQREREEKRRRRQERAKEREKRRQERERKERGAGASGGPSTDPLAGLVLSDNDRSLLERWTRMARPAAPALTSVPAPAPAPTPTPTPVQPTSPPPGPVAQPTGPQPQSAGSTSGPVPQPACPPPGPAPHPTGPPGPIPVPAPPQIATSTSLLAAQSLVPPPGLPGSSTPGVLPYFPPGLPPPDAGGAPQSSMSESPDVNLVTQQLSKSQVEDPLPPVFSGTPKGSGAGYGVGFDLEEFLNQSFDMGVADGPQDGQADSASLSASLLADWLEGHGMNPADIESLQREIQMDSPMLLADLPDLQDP
T1 sequence (Q07912 whole entry): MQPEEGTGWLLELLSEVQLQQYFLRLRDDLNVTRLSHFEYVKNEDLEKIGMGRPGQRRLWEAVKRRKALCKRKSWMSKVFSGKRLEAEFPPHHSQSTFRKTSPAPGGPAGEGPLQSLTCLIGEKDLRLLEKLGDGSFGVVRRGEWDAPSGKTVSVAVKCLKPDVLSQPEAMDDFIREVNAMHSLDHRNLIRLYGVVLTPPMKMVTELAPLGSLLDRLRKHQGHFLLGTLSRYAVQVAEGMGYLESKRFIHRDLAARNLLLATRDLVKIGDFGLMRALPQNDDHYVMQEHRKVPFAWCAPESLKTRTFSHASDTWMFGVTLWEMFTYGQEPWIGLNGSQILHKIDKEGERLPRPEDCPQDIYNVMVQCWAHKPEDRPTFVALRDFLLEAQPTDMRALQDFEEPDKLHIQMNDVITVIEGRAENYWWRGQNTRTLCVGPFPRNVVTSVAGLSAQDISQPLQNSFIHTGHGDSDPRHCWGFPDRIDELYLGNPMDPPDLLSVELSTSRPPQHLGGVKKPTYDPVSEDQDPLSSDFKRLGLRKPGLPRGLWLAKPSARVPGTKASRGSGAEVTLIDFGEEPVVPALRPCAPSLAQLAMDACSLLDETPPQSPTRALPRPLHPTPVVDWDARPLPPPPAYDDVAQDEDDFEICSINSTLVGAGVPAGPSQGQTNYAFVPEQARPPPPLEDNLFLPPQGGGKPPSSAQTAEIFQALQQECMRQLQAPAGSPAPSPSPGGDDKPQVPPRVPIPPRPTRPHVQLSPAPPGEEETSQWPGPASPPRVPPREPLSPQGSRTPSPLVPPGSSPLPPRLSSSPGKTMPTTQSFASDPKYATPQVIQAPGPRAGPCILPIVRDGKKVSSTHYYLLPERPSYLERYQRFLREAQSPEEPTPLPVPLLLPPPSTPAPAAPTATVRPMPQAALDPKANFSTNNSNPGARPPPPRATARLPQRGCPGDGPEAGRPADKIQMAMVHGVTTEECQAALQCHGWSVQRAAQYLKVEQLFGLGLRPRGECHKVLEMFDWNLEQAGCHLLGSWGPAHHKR

Turning to `CCOc1cc(C(=O)N2CCC(N3CCN(C)CC3)CC2)ccc1Nc1cc2c(cn1)N(C)C(=O)c1ncccc1N2C` [Compound 40], the inhibition at 1 µM at ACK is no more than 35%; at JAK1 it was no more than 35%; on ERK5 (setting [2]), greater than 90%; on AurA it was no more than 35%. Also, the “Kinase inhibition % at indicated screening concentration: AurB or AurC” value (shortened to “Kinase inhibition % … AurB or AurC”) with AurB or AurC (screening concentration 1.0 μM) was “E (E is ≦35%)”. Also, the EC50 with human PBMCs is greater than 10000 nM. On ERK5, the IC50 is no more than 50 nM. Further, the “Kinase inhibition % at indicated screening concentration: ABL or ARG” value (from here on “Kinase inhibition % … ABL or ARG”) in the experiment with ABL or ARG (screening concentration 1.0 μM) was “E (E is ≦35%)”. Also, the “Kinase inhibition % at indicated screening concentration: AMPKa1 or AMPKa2” value (shortened to “Kinase inhibition % … AMPKa1 or AMPKa2”) in the experiment with AMPKa1 or AMPKa2 (screening concentration 1.0 μM) is recorded as “E (E is ≦35%)”. Moreover, in experiment [1], the inhibition at 10 µM was less than 70%.

For the molecule `CCOc1cc(C(=O)N(C)CCN(CC)CC)ccc1Nc1cc2c(cn1)N(C)C(=O)c1ccccc1N2C` [Compound 42], the inhibition at 1 µM at ACK is no more than 35%; on JAK1, no more than 35%; at ERK5 (setting [2]), greater than 90%; at AurA, no more than 35%. Moreover, in the experiment with AurB or AurC (screening concentration 1.0 μM), the “Kinase inhibition % … AurB or AurC” value is on record as “E (E is ≦35%)”. For the same molecule, in the experiment with human PBMCs, the EC50 was found to be 650 nM. The IC50 at ERK5 is no more than 50 nM. In addition, the “Kinase inhibition % … ABL or ARG” value in the experiment with ABL or ARG (screening concentration 1.0 μM) is “E (E is ≦35%)”. In addition, the “Kinase inhibition % … AMPKa1 or AMPKa2” value in the experiment on AMPKa1 or AMPKa2 (screening concentration 1.0 μM) was “E (E is ≦35%)”. In addition, in [1], the inhibition at 10 µM was greater than 85%.

Take `CCOc1cc(C(=O)N2CCC(NC)C2)ccc1Nc1cc2c(cn1)N(C)C(=O)c1occc1N2C` (centres unmarked) [Compound 43]: the inhibition at 0.1 µM at ACK (screening concentration 0.1 μM) was no more than 35%; on JAK1 (screening concentration 0.1 μM), no more than 35%; on ERK5 (screening concentration 0.1 μM, read-out: Kinase inhibition % at indicated screening concentration: ERK5), greater than 90%; at AurA (screening concentration 0.1 μM), no more than 35%. The “Kinase inhibition % … AurB or AurC” value in the experiment with AurB or AurC (screening concentration 0.1 μM) is “E (E is ≦35%)”. The EC50 in the experiment on human PBMCs came to 1480 nM. Moreover, on ERK5, the IC50 is no more than 50 nM. Further, the “Kinase inhibition % … ABL or ARG” value in the experiment with ABL or ARG (screening concentration 0.1 μM) is listed as “E (E is ≦35%)”. In the experiment with AMPKa1 or AMPKa2 (screening concentration 0.1 μM), the “Kinase inhibition % … AMPKa1 or AMPKa2” value is “E (E is ≦35%)”. Further, in [1], the inhibition at 10 µM is greater than 85%.

As to `CCOc1cc(C(=O)NCCN2CCN(C)CC2)ccc1Nc1cc2c(cn1)N(C)C(=O)c1ccccc1N2C` [Compound 44], the inhibition at 1 µM at ACK was no more than 35%; on JAK1 it was no more than 35%; at ERK5 (setting [2]) it was 75 to 90%; on AurA, no more than 35%. Further, the “Kinase inhibition % … AurB or AurC” value in the experiment with AurB or AurC (screening concentration 1.0 μM) is recorded as “E (E is ≦35%)”. For the same molecule, the EC50 with human PBMCs was determined as 590 nM. Moreover, at ERK5, the IC50 is 101 to 500 nM. In the experiment on ABL or ARG (screening concentration 1.0 μM), the “Kinase inhibition % … ABL or ARG” value was “E (E is ≦35%)”. Also, the “Kinase inhibition % … AMPKa1 or AMPKa2” value with AMPKa1 or AMPKa2 (screening concentration 1.0 μM) is “E (E is ≦35%)”. The inhibition at 10 µM in experiment [1] fell in the range of 70 to 85%.

Take `CN1C(=O)c2ccccc2N(C)c2cc(N[C@H]3CC[C@H](NC4=NCCO4)CC3)ncc21` [Compound 45]: the inhibition at 1 µM was no more than 35% at ACK, no more than 35% at JAK1, 75 to 90% at ERK5 (setting [2]) and no more than 35% at AurA. The “Kinase inhibition % … AurB or AurC” value in the experiment on AurB or AurC (screening concentration 1.0 μM) is “E (E is ≦35%)”. In addition, in the experiment on human PBMCs, the EC50 worked out at 1580 nM. At ERK5, the IC50 was 101 to 500 nM. Besides, the “Kinase inhibition % … ABL or ARG” value in the experiment on ABL or ARG (screening concentration 1.0 μM) is reported as “E (E is ≦35%)”. The “Kinase inhibition % … AMPKa1 or AMPKa2” value with AMPKa1 or AMPKa2 (screening concentration 1.0 μM) is “E (E is ≦35%)”. In addition, in experiment [1], the inhibition at 10 µM is less than 70%.
